According to patent US20200222474A1, “COMPOSITIONS AND METHODS FOR INCREASING PHYTOCHEMICAL BIOAVAILABLITY AND BIOACTIVITY” (North Carolina State University, priority 2017, published 2020):

What was measured:
Format in all cases: cell-based, Lactobacillus acidophilus
L. acidophilus NCFM = test: Plant glycoside uptake and metabolite analysis of L. acidophilus NCFM culture supernatants by UHPLC-DAD-Q-TOF-MS; details: for aglycone / main metabolite identified in culture supernatant: L. acidophilus NCFM growing on the glycoside, up to 24 h; for order of depletion from equimolar mixture of salicin, esculin and amygdalin: culture supernatants, 24 hours growth; for Catabolism based on MS: qualitative: depletion of the plant glycoside and/or appearance of its metabolites
Protocol: For initial growth and gene expression studies, L. acidophilus NCFM was propagated three times in semi-defined medium (SDM) supplemented with either 1% or 0,5% (w/v) of the plant glycoside or carbohydrate (Table 1). For the RNA-seq analysis, cells were harvested by centrifugation (3,220×10 min, 25° C.) in the mid-exponential phase (OD600=0.6-0.8) and stored at −80° C. for subsequent RNA isolation. For the mass spectrometry metabolite analyses, 200 μt samples were taken at 0, 3, 6, 9, 12, and 24 hours of growth; cells were removed by centrifugation; and supernatants were stored at −80° C. for further analysis.
Analysis of plant glycoside uptake from L. acidophilus NCFM culture supernatants using mass spectrometry. The supernatants of L. acidophilus NCFM cultures grown on amygdalin, arbutin, esculin or salicin as carbon sources were analyzed during 24 hours by ultra-high performance liquid chromatography-diode array detection-quadruple time of flight mass spectrometry (UHPLC-DAD-Q-TOF-MS). Samples were diluted 1:20 (v/v) with methanol and an injection volume of […] was used. Separation was carried out on an Agilent Poroshell 120 phenyl-hexyl column (2.1×150 mm, 2.7 μm) using the Agilent Infinity 1290 UHPLC system (Agilent Technologies, Santa Clara, Calif., USA) equipped with a UV/vis spectrum diode array detector. Separation was performed at 0.35 mL min-1., 60° C. with a linear gradient consisting of water (A) and acetonitrile (B) both buffered with 20 mM formic acid, starting at 10% B and increased to 100% in 15 min where it was held for 2 min, returned to 10% in 0.1 min and kept for 3 min. MS detection was performed on an Agilent 6550 iFunnel QTOF MS equipped with Agilent Dual Jet Stream electrospray ion source with the drying gas temperature of 160° C. and gas flow of 13 L min^−1, whereas the sheath gas temperature was 300° C. and flow was 16 L min-1. Ionization was conducted in ESI-mode with capillary voltage set to 4000 V and nozzle voltage to 500 V. Mass spectra were recorded as centroid data for m/z 85-1700 in MS mode with an acquisition rate of 10 spectra s^−1. To avoid carry-over, the needle seat was back-flushed for 15 s at 4 mL min-1 with each of: i) isopropanol: 0.2% ammonium hydroxide (w/v) in water (1:1 v/v); ii) acetonitrile with 2% formic acid (w/v); iii) water with 2% formic acid. Data was processed with the Agilent Mass Hunter Qualitative Analysis B.07.00 software package (Agilent Technologies) and molar concentrations were obtained from standard curves of the plant glycosides and their main metabolites. Targeted compound searches were performed using lists of previously identified compounds plus standard chemical modifications.

NCK2422 (ΔLBA0725) = test: Phenotypic growth analysis of deletion mutant (PTS EIICBA); details: for growth of the ΔLBA0725 mutant (inactive PTS EIICBA): compared with background Δupp strain
Protocol: (§1) Phenotypic growth assays were performed using 1% (v/v) overnight cultures of L. acidophilus strains (Table 2) and other Lactobacillus species (Table 3) grown on SDM supplemented with 1% (w/v) glucose to inoculate 200 μL of SDM supplemented with 1% (w/v) of the examined carbohydrate (0.5% in the case of esculin) in 96-well microplate wells (Corning Costar, Corning, N.Y., USA) in duplicate or triplicate wells, respectively. The microplates were sealed with clear adhesive film, incubated at 37° C. in a Fluostar Optima microplate reader (BMG Labtech, Cary, N.C., USA), and the cell optical density (OD600) was monitored for 30 hours.
(§2) Construction of gene deletion mutants. The L. acidophilus NCFM genes LBA0225 and LBA0726, both encoding P-Bgl of glycoside hydrolase family 1 (GH1) enzymes in addition to the LBA0227 and LBA0725 genes encoding an EIIC and an EIICBA components of two PTS systems, respectively, were deleted using the upp-based counterselectable gene replacement system. Briefly, in-frame deletions were constructed by amplifying 650-750 bp of the up- and downstream flanking regions of the deletion targets with two primer pairs (e.g., LBA0225A/LBA0225B and LBA0225C/LBA0225D; Table 4). The resulting purified products were joined by splicing using overlap extension PCR (SOE-PCR63) and amplified to establish the deletion alleles. The SOE-PCR products, that include flanking restriction enzyme sites, were cloned within the BamHI and SacI/EcoRI sites of the pTRK935 integration vector and transformed into E. coli EC101. The resulting recombinant plasmids (pTRK1113-6) were confirmed by DNA sequencing and electroporated into L. acidophilus NCK1910 (Table 2) that contains the pTRK669 helper plasmid, and the recovery of the single- and double-crossover recombinants was performed as previously described. Recombinants carrying the new gene deletion alleles were isolated by colony PCR using primer pairs denoted up/down (e.g., LBA0225up/LBA0225down), which anneal to the flanking regions of the amplicons. Sequence integrity and in-frame deletions were verified by DNA sequencing employing the aforementioned primer pairs and primer denoted mid (e.g., LBA0225mid). The mutations were in-frame deletions of 90-96% of the coding regions.
To establish the functional significance of these two loci, single deletions of each PTS EII and P-Bgl gene, and a double deletion of both P-Bgl genes were constructed using the upp-based counter-selectable gene replacement system (Table 2) and the growth phenotypes of the mutant strains were analyzed (FIG. 3). Phenotypic growth analyses of deletion mutants of EII PTS transporters (FIGS. 3A, 3C, 3E, 3G, and 3I) and phospho-β-glucosidase (FIGS. 3B, 3D, 3F, 3H, and 3J) on the β-glucosides esculin, salicin, amygdalin and the disaccharides gentiobiose and cellobiose. The background Aupp strain is shown as a grey fill graph and the growth of the mutant strains is shown as: PTS EIIC (LBA0227, pink triangle), the phospho-β-glucosidase (LBA0225, light blue triangles), the PTS EIICBA (LBA0725, yellow squares), the second phospho-β-glucosidase (LBA0726, lilac squares) and the double phospho-β-glucosidase mutant (LBA0225/LBA0726, black stars). The color scheme is consistent with that used for the gene loci in FIG. 2.

NCK2418 (ΔLBA0227) = test: Phenotypic growth analysis of deletion mutant (PTS EIIC); details: compared with background Δupp strain
Protocol: as §1, §2
To establish the functional significance of these two loci, single deletions of each PTS EII and P-Bgl gene, and a double deletion of both P-Bgl genes were constructed using the upp-based counter-selectable gene replacement system (Table 2) and the growth phenotypes of the mutant strains were analyzed (FIG. 3). […]

SMILES	aglycone / main metabolite identified in culture supernatant (L. acidophilus NCFM)	order of depletion from equimolar mixture of salicin, esculin and amygdalin (L. acidophilus NCFM)	fraction of the initial glycoside utilized (L. acidophilus NCFM; during 24 hours growth, single carbon source)	Catabolism based on MS (L. acidophilus NCFM; growth concentration 1% (w/v))	reduction of growth on inactivation of the EIICBA (LBA0725) (NCK2422 (ΔLBA0725))	growth of the ΔLBA0725 mutant (inactive PTS EIICBA) (NCK2422 (ΔLBA0725))	growth of the ΔLBA0227 mutant (inactive EIIC) (NCK2418 (ΔLBA0227))	Catabolism based on MS (L. acidophilus NCFM; growth concentration 0.5% (w/v))
N#C[C@H](O[C@@H]1O[C@H](CO[C@@H]2O[C@H](CO)[C@@H](O)[C@H](O)[C@H]2O)[C@@H](O)[C@H](O)[C@H]1O)c1ccccc1 [Amygdalin]	benzaldehyde	significant amounts of amygdalin persisted after 24 hours	about a third	Yes	about 50%	severely reduced	abolished	
O=c1ccc2cc(O[C@@H]3O[C@H](CO)[C@@H](O)[C@H](O)[C@H]3O)c(O)cc2o1 [Esculin]	esculetin					abolished	invariant	Yes
OCc1ccccc1O[C@@H]1O[C@H](CO)[C@@H](O)[C@H](O)[C@H]1O [Salicin]	salicyl alcohol	first compound to be fully depleted		Yes		abolished	invariant	
